Test results published in ChEMBL document CHEMBL1201862, “PubChem BioAssay data set” (2004).
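A five-concentration, 48-hour dose response in 96-well plates underlies each endpoint, interpolated linearly between surrounding concentrations. At the GI50, growth is halved.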 Active and inactive are the calls of the source. Rule as the data show it: active = GI50 up to about 1.1 µM and inactive = higher.

What was measured:
Assay in all cases: growth of human tumour cells (NCI), 48 h
A549 = system: A549
ACHN = system: ACHN
DU-145 = system: DU-145
HCT-116 = system: HCT-116
HCT-15 = system: HCT-15
HL-60 = system: HL-60
HT-29 = system: HT-29
M14 = system: M14
MDA-MB-231 = system: MDA-MB-231
MDA-N = system: MDA-N
Malme-3M = system: Malme-3M
NCI/ADR-RES = system: NCI/ADR-RES
OVCAR-8 = system: OVCAR-8
RXF 393 = system: RXF 393
SF-539 = system: SF-539
SK-OV-3 = system: SK-OV-3
SNB-75 = system: SNB-75
BT-549 = system: BT-549

SMILES	GI50 (A549)	GI50 (ACHN)	GI50 (DU-145)	GI50 (HCT-116)	GI50 (HCT-15) [µM]	GI50 (HL-60)	GI50 (HT-29)	GI50 (M14)	GI50 (MDA-MB-231)	GI50 (MDA-N)	GI50 (Malme-3M)	GI50 (NCI/ADR-RES)	GI50 (OVCAR-8)	GI50 (RXF 393)	GI50 (SF-539)	GI50 (SK-OV-3)	GI50 (SNB-75)	GI50 (BT-549)
Oc1cc(-c2ccccc2Cl)nc2cc3c(cc12)OCO3	0.156 µM (active)	0.731 µM (active)	0.121 µM (active)	0.0528 µM (active)	0.0371	0.0207 µM (active)	0.0676 µM (active)	0.11 µM (active)	0.143 µM (active)	0.0158 µM (active)	0.0598 µM (active)	0.0575 µM (active)	0.198 µM (active)	0.0416 µM (active)	0.103 µM (active)	0.17 µM (active)	30.7 µM (inactive)	
COc1ccccc1/C=C/c1ccnc2ccccc12	14.5 µM (inactive)	16.4 µM (inactive)	16.4 µM (inactive)	13.6 µM (inactive)	12.3	7.64 µM (inactive)	12.8 µM (inactive)	16.2 µM (inactive)	16.1 µM (inactive)	11.6 µM (inactive)	11.7 µM (inactive)	11.3 µM (inactive)	15.4 µM (inactive)		14.6 µM (inactive)	16 µM (inactive)	3.37 µM (inactive)	10.9 µM (inactive)
O=C(O)/C=N\N=c1[nH]c2ccccc2[nH]1	> 100 µM (inactive)	> 100 µM (inactive)	> 100 µM (inactive)	> 100 µM (inactive)	> 100	> 100 µM (inactive)	> 100 µM (inactive)	> 100 µM (inactive)	> 100 µM (inactive)	> 100 µM (inactive)	> 100 µM (inactive)	> 100 µM (inactive)	> 100 µM (inactive)		> 100 µM (inactive)	> 100 µM (inactive)	> 100 µM (inactive)	> 100 µM (inactive)
COC(=O)C1(NC(=O)C(N)CC(=O)O)C(C)C1C (stereo not given)	> 100 µM (inactive)	> 100 µM (inactive)	> 100 µM (inactive)	> 100 µM (inactive)	> 100	> 100 µM (inactive)	> 100 µM (inactive)	> 100 µM (inactive)	> 100 µM (inactive)	> 100 µM (inactive)	> 100 µM (inactive)	> 100 µM (inactive)	> 100 µM (inactive)	> 100 µM (inactive)	> 100 µM (inactive)	> 100 µM (inactive)	> 100 µM (inactive)	
NC(=S)N/N=C(\Cc1nc2ccc(Cl)cc2nc1O)C(=O)Nc1ccc(Cl)cc1	> 100 µM (inactive)	> 100 µM (inactive)	> 100 µM (inactive)	> 100 µM (inactive)	> 100	> 100 µM (inactive)	> 100 µM (inactive)	> 100 µM (inactive)	> 100 µM (inactive)			> 100 µM (inactive)	> 100 µM (inactive)	> 100 µM (inactive)	> 100 µM (inactive)	> 100 µM (inactive)	> 100 µM (inactive)	> 100 µM (inactive)
Cc1cc2[nH]c3c(C#N)c(-c4ccccc4)c(/N=N/c4cccc(C(F)(F)F)c4)c(=O)n3c2cc1C	25.3 µM (inactive)	37.5 µM (inactive)		13.7 µM (inactive)	37			34.4 µM (inactive)	85.5 µM (inactive)	28.3 µM (inactive)	42.9 µM (inactive)	34.3 µM (inactive)	26.1 µM (inactive)	54.5 µM (inactive)	97.5 µM (inactive)	32.4 µM (inactive)	> 100 µM (inactive)	44.2 µM (inactive)
CC(C)(C)C(=O)Oc1ccc(/C=C/C(=O)c2ccc(OC(=O)C(C)(C)C)cc2)cc1	67.6 µM (inactive)	> 100 µM (inactive)	41 µM (inactive)	23.3 µM (inactive)	96.4	47 µM (inactive)	47.3 µM (inactive)	> 100 µM (inactive)	> 100 µM (inactive)	39.1 µM (inactive)	> 100 µM (inactive)	27.5 µM (inactive)	40.4 µM (inactive)	38.8 µM (inactive)	33 µM (inactive)	> 100 µM (inactive)	64.9 µM (inactive)	
Cc1ccc(Nc2nc(=O)c3c4ccccc4n(C(=O)OC(C)(C)C)c3s2)cc1	28.8 µM (inactive)	35.5 µM (inactive)	33.7 µM (inactive)		22.3	24.8 µM (inactive)	30.1 µM (inactive)	14.7 µM (inactive)	33.1 µM (inactive)		28.4 µM (inactive)	10.6 µM (inactive)	39.7 µM (inactive)		26.6 µM (inactive)	> 100 µM (inactive)	> 100 µM (inactive)	26.6 µM (inactive)
CC(C)=CCC/C(C)=C/CC/C(C)=C/CC/C(C=O)=C/CC/C(C)=C\CC/C(C)=C/CC/C(C)=C/CC/C(C)=C/CC1=CC(=O)C=CC1=O	> 100 µM (inactive)	> 100 µM (inactive)	> 100 µM (inactive)	73.5 µM (inactive)	> 100			45.3 µM (inactive)	> 100 µM (inactive)	> 100 µM (inactive)	21.8 µM (inactive)	> 100 µM (inactive)	46.5 µM (inactive)			> 100 µM (inactive)	38.1 µM (inactive)	> 100 µM (inactive)
COc1ccc(C2=Nn3c(nnc3-c3ccccc3)S/C2=C\c2ccc(-c3ccc([N+](=O)[O-])cc3)o2)cc1	36.7 µM (inactive)	64.1 µM (inactive)		29.6 µM (inactive)	16.5	14.5 µM (inactive)	26.4 µM (inactive)	25.4 µM (inactive)		7.6 µM (inactive)	34.8 µM (inactive)	25.2 µM (inactive)	30.5 µM (inactive)			34.4 µM (inactive)		26.2 µM (inactive)
O=C1C(=O)N(C2CCCCC2)C(=S)N1C1CCCCC1	> 100 µM (inactive)	> 100 µM (inactive)	> 100 µM (inactive)	> 100 µM (inactive)	> 100	> 100 µM (inactive)	> 100 µM (inactive)		> 100 µM (inactive)	> 100 µM (inactive)	> 100 µM (inactive)	> 100 µM (inactive)	> 100 µM (inactive)	> 100 µM (inactive)	> 100 µM (inactive)	> 100 µM (inactive)	> 100 µM (inactive)	
CC(=O)c1cccc(Nc2nc3ccccc3c3occc23)c1	13.5 µM (inactive)	14.3 µM (inactive)	33.6 µM (inactive)	18.2 µM (inactive)	36.4	> 100 µM (inactive)	6.22 µM (inactive)	35.2 µM (inactive)	24.8 µM (inactive)		19.9 µM (inactive)	23 µM (inactive)	20.4 µM (inactive)	10.8 µM (inactive)	15.5 µM (inactive)	17.8 µM (inactive)	22.7 µM (inactive)	15.2 µM (inactive)
CC1(C)CC(=O)C(CC2C(=O)c3ccccc3C2=O)C(=O)C1C(=O)C(=O)Nc1cccc2ccc(O)cc12 (stereo not given)	> 100 µM (inactive)	> 100 µM (inactive)	> 100 µM (inactive)	> 100 µM (inactive)	59.3	> 100 µM (inactive)	> 100 µM (inactive)	> 100 µM (inactive)	34 µM (inactive)		> 100 µM (inactive)	54.1 µM (inactive)	> 100 µM (inactive)		> 100 µM (inactive)	> 100 µM (inactive)	78 µM (inactive)	15 µM (inactive)
CC(=O)c1ccccc1NCC(=O)Nn1cnc2ccc(S(=O)(=O)Nc3ccccc3C(C)=O)cc2c1=O	> 100 µM (inactive)	> 100 µM (inactive)	> 100 µM (inactive)	> 100 µM (inactive)	> 100	> 100 µM (inactive)	> 100 µM (inactive)	> 100 µM (inactive)	> 100 µM (inactive)	> 100 µM (inactive)	> 100 µM (inactive)	> 100 µM (inactive)	> 100 µM (inactive)		> 100 µM (inactive)	> 100 µM (inactive)	> 100 µM (inactive)	> 100 µM (inactive)
Cc1nc2ccc(F)cc2c2c1CCS2	> 100 µM (inactive)	73.6 µM (inactive)	> 100 µM (inactive)	46.6 µM (inactive)	> 100	24 µM (inactive)	71.8 µM (inactive)		39.9 µM (inactive)		84.5 µM (inactive)	95.1 µM (inactive)	69.3 µM (inactive)	18.5 µM (inactive)	> 100 µM (inactive)		38.6 µM (inactive)	54.8 µM (inactive)
Cc1ccc(S(=O)(=O)N/N=C2/CCC3(O)CC2(C)CCC2[C@H]3CC2(C)C)cc1 (stereo not given in full)	27.3 µM (inactive)	29.8 µM (inactive)	36.6 µM (inactive)	24.8 µM (inactive)	27.1	31.3 µM (inactive)	33.6 µM (inactive)	43.4 µM (inactive)		30.7 µM (inactive)	35.3 µM (inactive)	28.2 µM (inactive)	34.7 µM (inactive)			32.4 µM (inactive)	21.4 µM (inactive)	32.1 µM (inactive)
COc1c(OC)c(OC)c2c(c1OC)c(=O)c1ccccc1n2C [MELICOPICINE]	> 100 µM (inactive)	> 100 µM (inactive)	> 100 µM (inactive)	> 100 µM (inactive)	72.3	57.4 µM (inactive)	> 100 µM (inactive)	> 100 µM (inactive)	> 100 µM (inactive)	> 100 µM (inactive)		73.5 µM (inactive)	> 100 µM (inactive)		> 100 µM (inactive)	> 100 µM (inactive)	> 100 µM (inactive)	> 100 µM (inactive)
